Measured values taken from patent publication US20260373183A1, “ANTIBIOTIC-RESISTANT ARTIFICIAL NUCLEOSIDE, COMPOSITION AND METHOD” (priority 2022, published 2026).

Columns and labels:
[1] = test system: Pseudomonas aeruginosa strains (VIM-2, SPM-1, IMP-1, OXA-50, ATCC 27853, PA01); assay: checkerboard MIC experiments, 5-NIdR combined with aztreonam/avibactam; assay type: cell-based
Experimental: 5-NIdR alone was not active, displaying individual MICs>512 μg/ml against these strains.

[2] = test system: bacterial persisters; assay: fluorescence and SEM of bacterial persisters treated with aztreonam/avibactam with or without 5-NIdR (FIG. 5); assay type: cell-based
Description: First, the artificial nucleoside inhibits TLS activity in response to ROS generated by β-lactams, and this serves to enhance the cytotoxicity of this class of antibiotics. […] These two features represent a novel approach to attack drug-resistant bacteria.

## O=[N+]([O-])c1ccc2c(ccn2[C@H]2C[C@H](O)[C@@H](CO)O2)c1 [5-NIdR, 5-nitro-indolyl-2′-deoxynucleoside]
[1]; 5-NIdR alone, against these strains
  activity of 5-NIdR alone: not active
[1]; 5-NIdR combined with aztreonam/avibactam, 5-NIdR concentrations as low as 0.5 μg/ml, all strains listed
  fold reduction in the MICs for aztreonam/avibactam: > 10 -fold
[1]; Pseudomonas aeruginosa, ATCC27853, read-out: minimal inhibitory concentrations (MICs)
  MIC: > 512 µg/mL
[1]; combined with β-lactams (aztreonam/avibactam), all Pseudomonas aeruginosa strains listed
  lowest 5-NIdR concentration required to achieve a >10-fold reduction in the MICs for aztreonam/avibactam: 0.5 μg/ml
[1]; combining 5-NIdR with aztreonam/avibactam in drug-resistant bacteria (FIG. 3A-F)
  cell-killing effects in checkerboard analysis: synergistic cell-killing effects
[1]; variable concentrations of 5-NIdR combined with variable concentrations of aztreonam/avibactam
  inhibitory activity in checkerboard experiments: excellent inhibitory activity
[2]; 5-NIdR added to aztreonam/avibactam, panel d
  influence on formation of persisters induced by antibiotic treatment: does not appear to influence formation of persisters
[2]; 5-NIdR combined with aztreonam/avibactam
  viability of filamentous persisters: adversely affects the viability of filamentous persisters
[2]; 5-NIdR combined with aztreonam/avibactam, panels d, e
  morphology of persisters (fluorescence and SEM): formation of “ghost” apoptotic saccules which represent non-viable persisters that do not undergo reversion
